According to ChEMBL document CHEMBL5532661, “Discovery of a Novel Glucagon-like Peptide-1 (GLP-1) Analogue from Bullfrog and Investigation of Its Potential for Designing GLP-1-Based Multiagonists” (J Med Chem, 2024):
Blank lines part the entries; values can stand above or below the molecule they belong to. Numbered stars: 1 amine (or outer) side, 2 acyl side, 3 side chain; on linkers, the order of the positions; unused ones are H or OH. Side chains are listed from the residue outwards. Peptide text beside a SMILES is read from it. * marks the point of attachment. C18 diacid = O=C(O)CCCCCCCCCCCCCCCCC(=O)*; γGlu = O=C(O)[C@H](CCC(=O)[*:2])N[*:1]; AEEA = NCCOCCOCC(=O)O

What was measured:
Format in all cases: functional, cell-based
[1] = biological target: T1, Glucagon-like peptide 1 receptor (Homo sapiens, UniProt P43220); assay: Agonist activity at human GLP-1 receptor expressed in HEK293 cells assessed as cAMP level measured after 60 mins by HTRF based assay
[2] = biological target: T1, Glucagon-like peptide 1 receptor; assay: Agonist activity at human GLP-1 receptor expressed in HEK293 cells assessed as cAMP level by measuring relative percent (GLP-1 EC50/compound EC50) measured after 60 mins by HTRF based assay relative to GLP-1
Glucagon receptor [3] = biological target: T2, Glucagon receptor (Homo sapiens, UniProt P47871); assay: Agonist activity at human GCGR expressed in HEK293 cells assessed as cAMP level measured after 60 mins by HTRF based assay
Glucagon receptor [4] = biological target: T2, Glucagon receptor; assay: Agonist activity at human GCGR expressed in HEK293 cells assessed as cAMP level by measuring relative percent (glucagon EC50/compound EC50) measured after 60 mins by HTRF based assay relative to glucagon

T1 sequence (P43220 whole entry): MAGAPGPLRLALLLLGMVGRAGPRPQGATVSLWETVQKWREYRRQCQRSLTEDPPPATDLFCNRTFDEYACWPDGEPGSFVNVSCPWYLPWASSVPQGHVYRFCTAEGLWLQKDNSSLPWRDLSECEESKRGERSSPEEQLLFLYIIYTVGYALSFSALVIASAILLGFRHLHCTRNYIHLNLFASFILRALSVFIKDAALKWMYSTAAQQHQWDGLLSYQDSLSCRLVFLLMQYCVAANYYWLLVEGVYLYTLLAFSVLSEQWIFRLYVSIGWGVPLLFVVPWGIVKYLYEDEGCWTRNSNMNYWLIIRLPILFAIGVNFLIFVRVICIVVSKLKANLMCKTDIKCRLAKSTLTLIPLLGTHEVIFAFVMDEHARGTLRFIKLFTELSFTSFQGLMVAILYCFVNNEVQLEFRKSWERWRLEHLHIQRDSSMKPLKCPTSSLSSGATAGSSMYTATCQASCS
T2 sequence (P47871 whole entry): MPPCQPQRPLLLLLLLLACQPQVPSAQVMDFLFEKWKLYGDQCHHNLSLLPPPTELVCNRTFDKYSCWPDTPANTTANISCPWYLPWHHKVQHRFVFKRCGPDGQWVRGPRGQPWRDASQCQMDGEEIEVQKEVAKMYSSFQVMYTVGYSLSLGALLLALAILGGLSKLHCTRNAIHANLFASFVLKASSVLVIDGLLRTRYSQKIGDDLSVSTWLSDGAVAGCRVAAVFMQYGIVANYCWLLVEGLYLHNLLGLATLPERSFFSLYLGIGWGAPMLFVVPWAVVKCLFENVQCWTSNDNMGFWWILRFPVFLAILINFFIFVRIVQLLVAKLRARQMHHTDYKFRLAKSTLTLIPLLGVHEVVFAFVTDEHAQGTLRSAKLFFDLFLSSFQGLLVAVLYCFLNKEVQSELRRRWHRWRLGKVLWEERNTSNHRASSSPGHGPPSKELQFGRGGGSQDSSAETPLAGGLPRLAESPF

Molecule: H-HSQGTFTSDMSKYLDSRRAQDFVDWLIKGRPSSGAPPPS-NH2
EC50 [1]: 0.13 nM | Activity ([2]; filed as agonist): 41% | EC50 (Glucagon receptor [3]): 0.91 nM | Activity (Glucagon receptor [4]): 10%

Molecule: H-HAEGTYTDDVSTYLQDQAAKDFVSWLKSGRA-NH2
EC50 [1]: 0.31 nM

Molecule: H-HSQGTFTSDMSKYLDSRRAQDFVDWLIKGR-NH2
EC50 [1]: 0.28 nM | Activity [2]: 19% | EC50 (Glucagon receptor [3]): 1.8 nM | Activity (Glucagon receptor [4]): 5%

Molecule: CSCC[C@H](NC(=O)[C@H](CC(=O)O)NC(=O)[C@H](CO)NC(=O)[C@@H](NC(=O)[C@H](Cc1ccccc1)NC(=O)[C@@H](NC(=O)CNC(=O)[C@H](CCC(N)=O)NC(=O)[C@H](CO)NC(=O)[C@@H](N)Cc1c[nH]cn1)[C@@H](C)O)[C@@H](C)O)C(=O)N[C@@H](CO)C(=O)N[C@@H](CCCCN)C(=O)N[C@@H](Cc1ccc(O)cc1)C(=O)N[C@@H](CC(C)C)C(=O)N[C@@H](CC(=O)O)C(=O)N[C@@H](CO)C(=O)N[C@@H](CCCNC(=N)N)C(=O)N[C@@H](CCCNC(=N)N)C(=O)N[C@@H](C)C(=O)N[C@@H](CCC(N)=O)C(=O)N[C@@H](CC(=O)O)C(=O)N[C@@H](Cc1ccccc1)C(=O)N[C@H](C(=O)N[C@@H](CC(=O)O)C(=O)N[C@@H](Cc1c[nH]c2ccccc12)C(=O)N[C@@H](CC(C)C)C(=O)N[C@@H](CCCCN)C(=O)N[C@@H](CC(N)=O)C(=O)NCC(=O)NCC(=O)N1CCC[C@H]1C(=O)N[C@@H](CO)C(=O)N[C@@H](CO)C(=O)NCC(=O)N[C@@H](C)C(=O)N1CCC[C@H]1C(=O)N1CCC[C@H]1C(=O)N1CCC[C@H]1C(=O)N[C@@H](CO)C(=O)N[C@@H](CCCCNC(=O)COCCOCCNC(=O)COCCOCCNC(=O)CC[C@H](NC(=O)CCCCCCCCCCCCCCCCC(=O)O)C(=O)O)C(N)=O)C(C)C (H-HSQGTFTSDMSKYLDSRRAQDFVDWLKNGGPSSGAPPPSK([AEEA-AEEA-γGlu-C18 diacid])-NH2)
EC50 [1]: 0.034 nM | Activity ([2]; filed as agonist): 156% | EC50 (Glucagon receptor [3]): 3.1 nM | Activity (Glucagon receptor [4]): 3%

Molecule: H-HADGTFTSDMSSYLEEKAAKEFVDWLIKGRPA-NH2
EC50 [1]: 0.018 nM

Molecule: H-HADGTFTSDMSSYLEEKAAKEFVAWLIKGRPK-NH2
EC50 [1]: 0.096 nM

Molecule: H-HSQGTFTSDMSSYLDSRRAQDFVDWLIKGR-NH2
EC50 [1]: 0.7 nM | Activity [2]: 5% | EC50 (Glucagon receptor [3]): 3.1 nM | Activity (Glucagon receptor [4]): 3%

Molecule: H-HADGTFTSDMSSYLEEKAAKEFVDWLIKARPK-NH2
EC50 [1]: 0.63 nM

Molecule: H-HADGTFTSDMSSYLEEKAAKEFVDWLIKGRPK-NH2
EC50 [1]: 0.051 nM

Molecule: H-HADGTFTSDMSSYLEEKAAKEFVDWLIKGRAK-NH2
EC50 [1]: 0.099 nM

Molecule: H-HADGTFTSDMSSYLEEKAAKEFVDWLIKGAPK-NH2
EC50 [1]: 0.097 nM

Molecule: H-HADGTFTSDMSSYLEEKAAKEFVDALIKGRPK-NH2
EC50 [1]: 0.092 nM

Molecule: H-HADGTFTSDMSSYLEEKAAKEFVDWAIKGRPK-NH2
EC50 [1]: 0.53 nM

Molecule: H-HADGTFTSDMSSYLEEKAAKAFVDWLIKGRPK-NH2
EC50 [1]: 0.11 nM

Molecule: H-HADGIYTSDVASLTDYLKSKRFVESLSNYNRKQNDRRM-NH2
EC50 [1]: 0.19 nM

Molecule: H-HADGTFTSDMSAYLEEKAAKEFVDWLIKGRPK-NH2
EC50 [1]: 0.12 nM

Next, values leading:

EC50 [1]: 0.094 nM
Molecule: H-HADGTFTSDMSSYLEEKAAKEFADWLIKGRPK-NH2

EC50 [1]: 0.61 nM
Molecule: H-HADGTFTSDMSSYLAEKAAKEFVDWLIKGRPK-NH2

EC50 [1]: 0.23 nM
Molecule: H-HADGTFTNDMTSYLDAKAARDFVSWLARSDKS-NH2

EC50 [1]: 0.66 nM
Molecule: H-HADGTFTSDMSSYLEEKAAKEAVDWLIKGRPK-NH2

EC50 [1]: 0.72 nM
Molecule: H-HADGTFTSDMSSYLEEKRAKEFVDWLIKGRPK-NH2

EC50 [1]: 0.12 nM
Molecule: H-HADGTFTSDMSSYLEEKAAKEFVDWLIAGRPK-NH2

EC50 [1]: 0.56 nM
Molecule: H-HADGTFTSDMSSALEEKAAKEFVDWLIKGRPK-NH2

EC50 [1]: 0.35 nM
Molecule: H-HADGTYTSDVSSYLQDQAAKKFVTWLKQGQDRRE-NH2
